Data published in patent US10370343B2, “[6,6] Fused bicyclic HDAC8 inhibitors” (FORMA Therapeutics, Inc., priority 2015, dated 2019).

What follows are compounds tested against T1, Recombinant N-terminal GST tag full-length human HDAC8 (Homo sapiens, UniProt Q9BY41) (assay: HDAC8 probe binding assay, time resolved fluorescence (TRF) format). Details: compounds grouped by IC50 range (Table 2).
T1 construct: Recombinant N-terminal GST tag full-length human HDAC8; purchased SignalChem H90-30G-1000; host or cells: baculovirus in Sf9 insect cells
T1 sequence (Q9BY41 1-377): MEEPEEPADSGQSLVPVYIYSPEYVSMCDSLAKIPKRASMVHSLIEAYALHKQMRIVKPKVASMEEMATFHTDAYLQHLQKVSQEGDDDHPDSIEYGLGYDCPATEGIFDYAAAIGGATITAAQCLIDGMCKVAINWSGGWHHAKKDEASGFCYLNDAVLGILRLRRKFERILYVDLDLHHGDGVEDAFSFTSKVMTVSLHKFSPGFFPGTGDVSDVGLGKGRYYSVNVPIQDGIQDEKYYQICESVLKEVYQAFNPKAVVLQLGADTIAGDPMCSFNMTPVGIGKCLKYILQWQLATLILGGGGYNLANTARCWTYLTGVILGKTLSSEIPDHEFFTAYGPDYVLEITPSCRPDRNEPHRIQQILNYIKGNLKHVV
In short: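 Probe-binding TRF assay using full-length N-GST human HDAC8 expressed in baculovirus-infected Sf9 cells, incubated 16 h at room temperature and read at 340 nm excitation, 485/535 nm emission. Percent inhibition was normalised to no-enzyme and DMSO controls. IC50 was obtained by 4-parameter logistic fit.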

Row | Compound | IC50 [µM]
1 | CC1(C)Oc2ccc(C(=O)NO)cc2N(Cc2ccccc2OC(F)(F)F)C1=O [Compound I-302, N-hydroxy-2,2-dimethyl-3-oxo-4-(2-(trifluoromethoxy)benzyl)-3,4-dihydro-2H-benzo[b][1,4]oxazine-6-carboxamide] | 0.025 to 0.1
2 | C[C@@H](c1ccccc1)N1C(=O)C(C)(C)Oc2ccc(C(=O)NO)cc21 [Compound I-303, (S)-N-hydroxy-2,2-dimethyl-3-oxo-4-(1-phenylethyl)-3,4-dihydro-2H-benzo[b][1,4]oxazine-6-carboxamide] | 0.025 to 0.1
3 | CC1(C)Oc2ccc(C(=O)NO)cc2N(Cc2ccc(C(F)(F)F)cc2)C1=O [Compound I-305, N-hydroxy-2,2-dimethyl-3-oxo-4-(4-(trifluoromethyl)benzyl)-3,4-dihydro-2H-benzo[b][1,4]oxazine-6-carboxamide] | 0.025 to 0.1
4 | CC1(C)Oc2ccc(C(=O)NO)cc2N(Cc2ccc(-c3ccccc3)cc2)C1=O [Compound I-306, 4-([1,1′-biphenyl]-4-ylmethyl)-N-hydroxy-2,2-dimethyl-3-oxo-3,4-dihydro-2H-benzo[b][1,4]oxazine-6-carboxamide] | 0.025 to 0.1
5 | CC1(C)Oc2ccc(C(=O)NO)cc2N(Cc2nc(-c3ccccc3)sc2Cl)C1=O [Compound I-308, 4-((5-chloro-2-phenylthiazol-4-yl)methyl)-N-hydroxy-2,2-dimethyl-3-oxo-3,4-dihydro-2H-benzo[b][1,4]oxazine-6-carboxamide] | 0.025 to 0.1
6 | CC1(C)Oc2ccc(C(=O)NO)cc2N(Cc2nc(-c3ccccc3)sc2Cc2ccccc2)C1=O [Compound I-309, 4-((5-benzyl-2-phenylthiazol-4-yl)methyl)-N-hydroxy-2,2-dimethyl-3-oxo-3,4-dihydro-2H-benzo[b][1,4]oxazine-6-carboxamide] | > 1
7 | CC1(C)Oc2ccc(C(=O)NO)cc2N(Cc2ccc(Cl)c(Cl)c2)C1=O [Compound I-312, 4-(3,4-dichlorobenzyl)-N-hydroxy-2,2-dimethyl-3-oxo-3,4-dihydro-2H-benzo[b][1,4]oxazine-6-carboxamide] | 0.025 to 0.1
8 | CC1(C)Oc2ccc(C(=O)NO)cc2N(Cc2ccc3ccccc3c2)C1=O [Compound I-317, N-hydroxy-2,2-dimethyl-4-(naphthalen-2-ylmethyl)-3-oxo-3,4-dihydro-2H-benzo[b][1,4]oxazine-6-carboxamide] | 0.025 to 0.1
9 | CC1(C)Oc2ccc(C(=O)NO)cc2N(C/C=C/c2ccccc2)C1=O [Compound I-318, 4-cinnamyl-N-hydroxy-2,2-dimethyl-3-oxo-3,4-dihydro-2H-benzo[b][1,4]oxazine-6-carboxamide] | ≤ 0.025
10 | CC1(C)Oc2ccc(C(=O)NO)cc2N(Cc2cccc(OC(F)(F)F)c2)C1=O [Compound I-319, N-hydroxy-2,2-dimethyl-3-oxo-4-(3-(trifluoromethoxy)benzyl)-3,4-dihydro-2H-benzo[b][1,4]oxazine-6-carboxamide] | 0.025 to 0.1
11 | CC1(C)Oc2ccc(C(=O)NO)cc2N(Cc2cc(-c3ccccc3)on2)C1=O [Compound I-320, N-hydroxy-2,2-dimethyl-3-oxo-4-((5-phenylisoxazol-3-yl)methyl)-3,4-dihydro-2H-benzo[b][1,4]oxazine-6-carboxamide] | ≤ 0.025
12 | CC1(C)Oc2ccc(C(=O)NO)cc2N(Cc2ccc(C(F)(F)F)cc2F)C1=O [Compound I-321, 4-(2-fluoro-4-(trifluoromethyl)benzyl)-N-hydroxy-2,2-dimethyl-3-oxo-3,4-dihydro-2H-benzo[b][1,4]oxazine-6-carboxamide] | ≤ 0.025
13 | CC1(C)Oc2ccc(C(=O)NO)cc2N(Cc2ccc(OC(F)(F)F)cc2F)C1=O [Compound I-322, 4-(2-fluoro-4-(trifluoromethoxy)benzyl)-N-hydroxy-2,2-dimethyl-3-oxo-3,4-dihydro-2H-benzo[b][1,4]oxazine-6-carboxamide] | 0.025 to 0.1
14 | O=C(NO)c1ccc2c(c1)N(Cc1ccc3ccccc3c1)C(=O)CO2 [Compound I-323, N-hydroxy-4-(naphthalen-2-ylmethyl)-3-oxo-3,4-dihydro-2H-benzo[b][1,4]oxazine-6-carboxamide] | ≤ 0.025
15 | O=C(NO)c1ccc2c(c1)N(Cc1cnc3[nH]ccc3c1)C(=O)CO2 [Compound I-324, 4-((1H-pyrrolo[2,3-b]pyridin-5-yl)methyl)-N-hydroxy-3-oxo-3,4-dihydro-2H-benzo[b][1,4]oxazine-6-carboxamide] | 0.025 to 0.1
16 | Cc1nn(C)c2ncc(CN3C(=O)COc4ccc(C(=O)NO)cc43)cc12 [Compound I-325, 4-((1,3-dimethyl-1H-pyrazolo[3,4-b]pyridin-5-yl)methyl)-N-hydroxy-3-oxo-3,4-dihydro-2H-benzo[b][1,4]oxazine-6-carboxamide] | ≤ 0.025
17 | Cc1cccc2nc(CN3C(=O)COc4ccc(C(=O)NO)cc43)cc(=O)n12 [Compound I-327, N-hydroxy-4-((6-methyl-4-oxo-4H-pyrido[1,2-a]pyrimidin-2-yl)methyl)-3-oxo-3,4-dihydro-2H-benzo[b][1,4]oxazine-6-carboxamide] | 0.025 to 0.1

Row | Compound | IC50 [µM]
18 | CC(C)Oc1ccc(CN2C(=O)COc3ccc(C(=O)NO)cc32)cc1 [Compound I-330, N-hydroxy-4-(4-isopropoxybenzyl)-3-oxo-3,4-dihydro-2H-benzo[b][1,4]oxazine-6-carboxamide] | ≤ 0.025
19 | O=C(NO)c1ccc2c(c1)N(Cc1ccc(OC3CCC3)cc1)C(=O)CO2 [Compound I-331, 4-(4-cyclobutoxybenzyl)-N-hydroxy-3-oxo-3,4-dihydro-2H-benzo[b][1,4]oxazine-6-carboxamide] | ≤ 0.025
20 | COc1ccc(CN2C(=O)COc3ccc(C(=O)NO)cc32)cn1 [Compound I-332, N-hydroxy-4-((6-methoxypyridin-3-yl)methyl)-3-oxo-3,4-dihydro-2H-benzo[b][1,4]oxazine-6-carboxamide] | ≤ 0.025
21 | O=C(NO)c1ccc2c(c1)N(Cc1cnc3ccccc3c1)C(=O)CO2 [Compound I-333, N-hydroxy-3-oxo-4-(quinoIin-3-ylmethyl)-3,4-dihydro-2H-benzo[b][1,4]oxazine-6-carboxamide] | ≤ 0.025
22 | O=C(NO)c1ccc2c(c1)N(Cc1cc3ccccc3cn1)C(=O)CO2 [Compound I-334, N-hydroxy-4-(isoquinolin-3-ylmethyl)-3-oxo-3,4-dihydro-2H-benzo[b][1,4]oxazine-6-carboxamide] | ≤ 0.025
23 | O=C(NO)c1ccc2c(c1)N(Cc1ccc3cccnc3c1)C(=O)CO2 [Compound I-335, N-hydroxy-3-oxo-4-(quinolin-ylmethyl)-3,4-dihydro-2H-benzo[b][1,4]oxazine-6-carboxamide] | ≤ 0.025
24 | O=C(NO)c1ccc2c(c1)N(Cc1ccc3cnccc3c1)C(=O)CO2 [Compound I-336, N-hydroxy-4-(isoquinolin-6-ylmethyl)-3-oxo-3,4-dihydro-2H-benzo[b][1,4]oxazine-6-carboxamide] | ≤ 0.025
25 | O=C(NO)c1ccc2c(c1)N(Cc1ccc3ccncc3c1)C(=O)CO2 [Compound I-337, N-hydroxy-4-(isoquinolin-7-ylmethyl)-3-oxo-3,4-dihydro-2H-benzo[b][1,4]oxazine-6-carboxamide] | ≤ 0.025
26 | O=C(NO)c1ccc2c(c1)N(Cc1ccn3ccnc3c1)C(=O)CO2 [Compound I-338, N-hydroxy-4-(imidazo[1,2-a]pyridin-7-ylmethyl)-3-oxo-3,4-dihydro-2H-benzo[b][1,4]oxazine-6-carboxamide] | ≤ 0.025
27 | O=C(NO)c1ccc2c(c1)N(Cc1ccn3nccc3c1)C(=O)CO2 [Compound I-339, N-hydroxy-3-oxo-4-(pyrazolo[1,5-a]pyridin-5-ylmethyl)-3,4-dihydro-2H-benzo[b][1,4]oxazine-6-carboxamide] | ≤ 0.025
28 | O=C(NO)c1ccc2c(c1)N(Cc1cccc(Cl)c1F)C(=O)CO2 [Compound I-340, 4-(3-chloro-2-fluorobenzyl)-N-hydroxy-3-oxo-3,4-dihydro-2H-benzo[b][1,4]oxazine-6-carboxamide] | ≤ 0.025
29 | COc1ccc(CN2C(=O)COc3ccc(C(=O)NO)cc32)c(F)c1 [Compound I-341, 4-(2-fluoro-4-methoxybenzyl)-N-hydroxy-3-oxo-3,4-dihydro-2H-benzo[b][1,4]oxazine-6-carboxamide] | ≤ 0.025
30 | COc1cc(F)cc(CN2C(=O)COc3ccc(C(=O)NO)cc32)c1 [Compound I-342, 4-(3-fluoro-5-methoxybenzyl)-N-hydroxy-3-oxo-3,4-dihydro-2H-benzo[b][1,4]oxazine-6-carboxamide] | 0.025 to 0.1
31 | O=C(NO)c1ccc2c(c1)N(Cc1cc(F)cc(Cl)c1)C(=O)CO2 [Compound I-343, 4-(3-chloro-5-fluorobenzyl)-N-hydroxy-3-oxo-3,4-dihydro-2H-benzo[b][1,4]oxazine-6-carboxamide] | ≤ 0.025
32 | O=C(NO)c1ccc2c(c1)N(Cc1ccc(Cl)cc1F)C(=O)CO2 [Compound I-344, 4-(4-chloro-2-fluorobenzyl)-N-hydroxy-3-oxo-3,4-dihydro-2H-benzo[b][1,4]oxazine-6-carboxamide] | ≤ 0.025
33 | O=C(NO)c1ccc2c(c1)N(Cc1ccc(Cl)c(C(F)(F)F)c1)C(=O)CO2 [Compound I-345, 4-(4-chloro-3-(trifluorornethyl)benzyl)-N-hydroxy-3-oxo-3,4-dihydro-2H-benzo[b][1,4]oxazine-6-carboxamide] | ≤ 0.025
34 | O=C(NO)c1ccc2c(c1)N(Cc1ccc(Cl)c(F)c1)C(=O)CO2 [Compound I-346, 4-(4-chloro-3-fluorobenzyl)-N-hydroxy-3-oxo-3,4-dihydro-2H-benzo[b][1,4]oxazine-6-carboxamide] | ≤ 0.025
